What was measured:
mGluR5 = molecular target: T1, mGluR5 (Homo sapiens, UniProt P41594); assay: Fluorescence-based Ca2+ mobilization assay; assay type: cell-based; conditions: HEK293 cells overexpressing mGluR5; L-glutamate at EC80
T1 construct: expressed in transfected cells; host or cells: HEK293
Protocol: In order to measure the activity on the mGluR5, an experiment was carried out to check the change in the intracellular Ca^2+ level using the HEK293 cell line permanently overexpressing the mGluR5. The cells in the cell culture medium were aliquoted into a 384-well plate coated with poly-D-lysine and cultured in a 37° C. incubator supplied with 5% CO2. The next day, the medium was removed and a dye loading buffer—in which a reagent capable of measuring Ca^2+ was dissolved—was added, and then incubated at 37° C. for 60 minutes. The test compounds were dissolved in 100% DMSO at a final concentration of 10 mM to make a stock solution. The starting concentration of […] was prepared from the stock solution, followed by serial dilutions to prepare working solutions (test compound working solutions). The test compound working solutions were added to the cells that were incubated in the dye loading buffer, which were maintained for 30 minutes at room temperature in a light-shielding state before measurement. The Ca^2+ level change induced by L-glutamate at EC80 concentration was measured for 2 minutes using FLIPR Tetra (MDS Analytical Technologies). The fluorescent Ca^2+ signal values in the presence of the test compounds were normalized to the fluorescent signal elicited by […] concentration of L-glutamate as 100% and that elicited by vehicle as 0% to estimate % inhibition of the test compounds. The efficacy of the test compounds was calculated as IC50 values and represented in Table 1. (+: 1,000-2,000 nM, ++: 500-1,000 nM, +++: 100-500 nM, ++++: less than 100 nM).

human 5-HT2AR = molecular target: T2, human 5-HT2AR (Homo sapiens, UniProt P28223); assay: HTRF-based IP1 accumulation assay (5-HT2AR antagonistic effect); assay type: cell-based; conditions: HEK293 cells overexpressing human 5-HT2AR; serotonin at EC80
T2 construct: expressed in transfected cells; host or cells: HEK293
Protocol: The 5-HT2AR antagonistic effect of the test compounds was confirmed by measuring the production amount of IP1 using the HEK293 cell line permanently overexpressing the human 5-HT2AR. The test compounds were dissolved in 100% DMSO to a final concentration of 10 mM. The starting concentration of 10 μM was prepared from the stock solution, followed by serial dilutions to prepare working solutions in a buffer containing lithium chloride (LiCl). The cells and compounds prepared in the test buffer were placed in a 96-well plate and incubated at room temperature for 10 minutes. Serotonin of EC80 concentration was added, followed by incubation at 37° C. for 30 minutes in a light-shielding state. To measure IP1 accumulation in cells, JP1-d2 acceptor and IP1-Cryptate donor-which are HTRF-based substances for fluorescence signals-were added and incubated for 1 hour at room temperature in a light-shielded state. The fluorescent emission signals of acceptor and donor were detected, and HTRF ratio values were substracted by mean value of serotonin control. The percentage of activation was calculated by normalization of the serotonin control (0%) and IP1 control (100%). The IC50 values of the test compounds are represented in Table 1. (+: 1,000-2,000 nM, ++: 500-1,000 nM, +++: 100-500 nM, ++++: less than 100 nM).

T1 sequence (P41594 21-1212): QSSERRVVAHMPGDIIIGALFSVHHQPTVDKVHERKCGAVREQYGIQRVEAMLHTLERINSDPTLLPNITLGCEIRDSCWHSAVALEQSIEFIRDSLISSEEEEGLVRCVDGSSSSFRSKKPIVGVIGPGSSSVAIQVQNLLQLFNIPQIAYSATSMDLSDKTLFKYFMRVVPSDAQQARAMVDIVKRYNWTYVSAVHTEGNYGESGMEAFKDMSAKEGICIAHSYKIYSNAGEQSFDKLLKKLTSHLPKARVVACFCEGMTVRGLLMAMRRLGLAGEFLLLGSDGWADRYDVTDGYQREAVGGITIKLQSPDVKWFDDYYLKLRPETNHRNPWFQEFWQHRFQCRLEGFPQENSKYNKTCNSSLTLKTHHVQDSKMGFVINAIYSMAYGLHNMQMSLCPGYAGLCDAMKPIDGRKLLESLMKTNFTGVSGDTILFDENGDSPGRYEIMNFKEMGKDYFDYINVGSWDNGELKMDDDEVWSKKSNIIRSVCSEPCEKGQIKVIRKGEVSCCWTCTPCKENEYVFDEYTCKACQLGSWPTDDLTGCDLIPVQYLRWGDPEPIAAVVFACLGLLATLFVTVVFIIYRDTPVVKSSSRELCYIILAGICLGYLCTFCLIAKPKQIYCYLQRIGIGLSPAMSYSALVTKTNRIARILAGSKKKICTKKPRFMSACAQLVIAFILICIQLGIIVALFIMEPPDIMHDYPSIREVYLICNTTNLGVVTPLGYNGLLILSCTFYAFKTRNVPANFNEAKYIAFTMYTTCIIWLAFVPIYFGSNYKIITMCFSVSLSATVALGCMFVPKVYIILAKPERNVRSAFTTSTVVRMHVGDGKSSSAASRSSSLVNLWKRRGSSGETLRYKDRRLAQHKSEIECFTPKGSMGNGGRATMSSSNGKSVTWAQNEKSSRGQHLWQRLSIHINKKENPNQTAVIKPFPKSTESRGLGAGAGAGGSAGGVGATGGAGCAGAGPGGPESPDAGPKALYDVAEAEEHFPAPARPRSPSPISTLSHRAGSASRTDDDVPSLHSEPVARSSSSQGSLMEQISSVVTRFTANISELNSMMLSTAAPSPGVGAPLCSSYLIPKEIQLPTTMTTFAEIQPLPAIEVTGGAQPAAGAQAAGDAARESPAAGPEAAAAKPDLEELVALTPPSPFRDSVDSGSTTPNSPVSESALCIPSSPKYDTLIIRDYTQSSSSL
T2 sequence (P28223 whole entry): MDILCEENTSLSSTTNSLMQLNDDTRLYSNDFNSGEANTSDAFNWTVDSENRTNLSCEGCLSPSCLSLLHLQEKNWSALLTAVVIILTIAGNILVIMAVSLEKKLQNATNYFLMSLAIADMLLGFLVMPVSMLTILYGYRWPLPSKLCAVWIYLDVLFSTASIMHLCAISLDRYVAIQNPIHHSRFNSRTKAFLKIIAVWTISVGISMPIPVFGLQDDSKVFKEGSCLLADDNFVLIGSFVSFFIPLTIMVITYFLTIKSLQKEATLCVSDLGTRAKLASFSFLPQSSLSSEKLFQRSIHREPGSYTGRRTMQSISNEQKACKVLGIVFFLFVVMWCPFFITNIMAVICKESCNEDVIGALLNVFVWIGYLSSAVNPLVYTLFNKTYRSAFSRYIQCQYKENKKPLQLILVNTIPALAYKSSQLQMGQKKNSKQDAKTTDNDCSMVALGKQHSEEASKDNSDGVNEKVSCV

| Compound | IC50 (mGluR5) | IC50 (human 5-HT2AR) |
| --- | --- | --- |
| O=C(NCC1(NC2CC2)CCC1)c1ccc(C#Cc2ccc(F)cn2)cc1 [Example 4, N-((1-(cyclopropylamino)cyclobutyl)methyl)-4-((5-fluoropyridin-2-yl)ethynyl)benzamide] | 1000 to 2000 nM | 100 to 500 nM |
| O=C(NCC1(NC2CC2)CCC1)c1ccc(C#Cc2ccc(F)cc2)cc1 [Example 6, N-((1-(cyclopropylamino)cyclobutyl)methyl)-4-((4-fluorophenyl)ethynyl)benzamide] | 500 to 1000 nM | < 100 nM |
| O=C(NCC1(NC2CC2)CCC1)c1ccc(C#Cc2ccncc2)c(F)c1 [Example 7, N-((1-(cyclopropylamino)cyclobutyl)methyl)-3-fluoro-4-(pyridin-4-ylethynyl)benzamide] | 1000 to 2000 nM | 100 to 500 nM |
| O=C(NCC1(NC2CC2)CCC1)c1ccc(C#Cc2ccccn2)cc1 [Example 8, N-((1-(cyclopropylamino)cyclobutyl)methyl)-4-(pyridin-2-ylethynyl)benzamide] | 500 to 1000 nM | 1000 to 2000 nM |
| O=C(NCC1(NC2CC2)CCCC1)c1ccc(C#Cc2ccc(F)cc2)cc1 [Example 13, N-((1-(cyclopropylamino)cyclopentyl)methyl)-4-((4-fluorophenyl)ethynyl)benzamide] | 500 to 1000 nM | < 100 nM |
| O=C(NCC1(NC2CC2)CCCCCC1)c1ccc(C#Cc2ccc(F)cc2)cc1 [Example 14, N-((1-(cyclopropylamino)cycloheptyl)methyl)-4-((4-fluorophenyl)ethynyl)benzamide] | 100 to 500 nM | < 100 nM |
| O=C(NCC1(NC2CC2)CCCCCC1)c1ccc(C#Cc2ccc(F)cn2)cc1 [Example 15, N-((1-(cyclopropylamino)cycloheptyl)methyl)-4-((5-fluoropyridin-2-yl)ethynyl)benzamide] | 500 to 1000 nM | 100 to 500 nM |
| O=C(NCC1(NC2CC2)CCCC1)c1ccc(C#Cc2ccc(F)c(F)c2)cc1 [Example 17, N-((1-(cyclopropylamino)cyclopentyl)methyl)-4-((3,4-difluorophenyl)ethynyl)benzamide] | 1000 to 2000 nM | 100 to 500 nM |
| O=C(NCC1(NC2CC2)CCCCCC1)c1ccc(C#Cc2ccc(F)c(F)c2)cc1 [Example 18, N-((1-(cyclopropylamino)cycloheptyl)methyl)-4-((3,4-difluorophenyl)ethynyl)benzamide] | 1000 to 2000 nM | 500 to 1000 nM |
| O=C(NCC1(NC2CC2)CCCCC1)c1ccc(C#Cc2ccc(F)cc2)cc1 [Example 19, N-((1-(cyclopropylamino)cyclohexyl)methyl)-4-((4-fluorophenyl)ethynyl)benzamide] | 1000 to 2000 nM | < 100 nM |
| Cc1cc(C#Cc2ccc(C(=O)NCC3(NC4CC4)CCCC3)cc2)ccn1 [Example 21, N-((1-(cyclopropylamino)cyclopentyl)methyl)-4-((2-methylpyridin-4-yl)ethynyl)benzamide] | 1000 to 2000 nM | 500 to 1000 nM |
| O=C(NCC1(N2CCOCC2)CCCC1)c1ccc(C#Cc2ccccc2F)cc1 [Example 23, 4-((2-fluorophenyl)ethynyl)-N-((1-morpholinocyclopentyl)methyl)benzamide] | 500 to 1000 nM | 100 to 500 nM |
| CC(C)NC1(CNC(=O)c2ccc(C#Cc3ccccc3F)cc2)CCOCC1 [Example 24, 4-((2-fluorophenyl)ethynyl)-N-((4-(isopropylamino)tetrahydro-2H-pyran-4-yl)methyl)benzamide] | 100 to 500 nM | 100 to 500 nM |
| CC1CCC(CNC(=O)c2ccc(C#Cc3ccccc3F)cc2)(NC2CC2)CC1 (centres unmarked) [Example 26, N-((1-(cyclopropylamino)-4-methylcyclohexyl)methyl)-4-((2-fluorophenyl)ethynyl)benzamide] | 1000 to 2000 nM | < 100 nM |
| CC(C)(C)CNC1(CNC(=O)c2ccc(C#Cc3ccccc3F)cc2)CCCCC1 [Example 28, 4-((2-fluorophenyl)ethynyl)-N-((1-(neopentylamino)cyclohexyl)methyl)benzamide] | 1000 to 2000 nM | 100 to 500 nM |
| O=C(NCC1(CC2CC2)CCOCC1)c1ccc(C#Cc2ccccc2F)cc1 [Example 29, N-((4-(cyclopropylmethyl)tetrahydro-2H-pyran-4-yl)methyl)-4-((2-fluorophenyl)ethynyl)benzamide] | 100 to 500 nM | 100 to 500 nM |

| Compound | IC50 (mGluR5) | IC50 (human 5-HT2AR) |
| --- | --- | --- |
| CC(C)NC1(CNC(=O)c2ccc(C#Cc3ccccc3F)cc2)CCCC1 [Example 30, 4-((2-fluorophenyl)ethynyl)-N-((1-(isopropylamino)cyclopentyl)methyl)benzamide] | 500 to 1000 nM | < 100 nM |
| O=C(NCC1(NCC(F)(F)F)CCCCC1)c1ccc(C#Cc2ccncc2)cc1 [Example 31, 4-(pyridin-4-ylethynyl)-N-((1-((2,2,2-trifluoroethyl)amino)cyclohexyl)methyl)benzamide] | 1000 to 2000 nM | 1000 to 2000 nM |
| O=C(NCC1(O)CCCCC1)c1ccc(C#Cc2ccccc2F)cc1 [Example 32, 4-((2-fluorophenyl)ethynyl)-N-((1-hydroxycyclohexyl)methyl)benzamide] | < 100 nM | 500 to 1000 nM |
| O=C(NCC1CCOCC1)c1ccc(C#Cc2ccc(F)cc2)cc1 [Example 33, 4-((4-fluorophenyl)ethynyl)-N-((tetrahydro-2H-pyran-4-yl)methyl)benzamide] | 100 to 500 nM | 1000 to 2000 nM |
| O=C(NCC1(c2cccnc2)CCCC1)c1ccc(C#Cc2ccccc2F)cc1 [Example 34, 4-((2-fluorophenyl)ethynyl)-N-((1-(pyridin-3-yl)cyclopentyl)methyl)benzamide] | 500 to 1000 nM | 1000 to 2000 nM |
| O=C(NCC1CCOCC1)c1ccc(C#Cc2ccccc2F)cc1F [Example 35, 2-fluoro-4-((2-fluorophenyl)ethynyl)-N-((tetrahydro-2H-pyran-4-yl)methyl)benzamide] | < 100 nM | 1000 to 2000 nM |
| CC1(CNC(=O)c2ccc(C#Cc3ccccc3F)cc2)CCOCC1 [Example 36, 4-((2-fluorophenyl)ethynyl)-N-((4-methyltetrahydro-2H-pyran-4-yl)methyl)benzamide] | < 100 nM | 500 to 1000 nM |
| O=C(NCC1(CO)CCOCC1)c1ccc(C#Cc2ccccc2F)cc1 [Example 38, 4-((2-fluorophenyl)ethynyl)-N-((4-(hydroxymethyl)tetrahydro-2H-pyran-4-yl)methyl)benzamide] | 100 to 500 nM | 500 to 1000 nM |
| C[C@@H](NC(=O)c1ccc(C#Cc2ccccc2F)cc1)C1CCOCC1 [Example 47, (R)-4-((2-fluorophenyl)ethynyl)-N-(1-(tetrahydro-2H-pyran-4-yl)ethyl)benzamide] | < 100 nM | 100 to 500 nM |
| O=C(NCC1(F)CCOCC1)c1ccc(C#Cc2ccccc2F)cc1 [Example 48, 4-((2-fluorophenyl)ethynyl)-N-((4-fluorotetrahydro-2H-pyran-4-yl)methyl)benzamide] | < 100 nM | 500 to 1000 nM |
| O=C(NCC1(CF)CCOCC1)c1ccc(C#Cc2ccccc2F)cc1 [Example 50, N-((4-(fluoromethyl)tetrahydro-2H-pyran-4-yl)methyl)-4-((2-fluorophenyl)ethynyl)benzamide] | < 100 nM | 500 to 1000 nM |
| CNC(=O)C1(CNC(=O)c2ccc(C#Cc3ccccc3F)cc2)CCOCC1 [Example 53, 4-((4-((2-fluorophenyl)ethynyl)benzamido)methyl)-N-methyltetrahydro-2H-pyran-4-carboxamide] | 500 to 1000 nM | 1000 to 2000 nM |
| O=C(NCC1CCCCO1)c1ccc(C#Cc2ccccc2F)cc1 (centres unmarked) [Example 54, 4-((2-fluorophenyl)ethynyl)-N-((tetrahydro-2H-pyran-2-yl)methyl)benzamide] | < 100 nM | 100 to 500 nM |
| O=C(NCC1(O)CCC1)c1ccc(C#Cc2ccccc2F)cc1 [Example 57, 4-((2-fluorophenyl)ethynyl)-N-((1-hydroxycyclobutyl)methyl)benzamide] | < 100 nM | 500 to 1000 nM |
| COC(=O)CCC1(CNC(=O)c2ccc(C#Cc3ccccc3F)cc2)CCCCC1 [Example 59, methyl 3-(1-((4-((2-fluorophenyl)ethynyl)benzamido)methyl)cyclohexyl)propanoate] | 100 to 500 nM | 500 to 1000 nM |

Reference: patent publication US12435051B2, “Dual modulator of mGluR5 and 5-HT2A receptor, and use thereof” (Vivozon Inc., priority 2020, dated 2025)
